In patent publication US20240384268A1, “Oligonucleotides” (Hudson Institute of Medical Research, priority 2021, published 2024):
In the oligonucleotide strings, read from the 5' end, every base follows the letter of its sugar. An asterisk marks phosphorothioate; unmarked linkages are phosphodiester. Other units and linkages are bracketed, terminal groups are in braces. A string of capitals states the bases alone. d = 2'-deoxy (DNA); m = 2'-O-methyl

Molecular target: T1, human TLR9 (Homo sapiens, UniProt Q9NR96)
T1 construct: HA; host or cells: 293XL-hTLR9-HA (HEK293)
T1 sequence (Q9NR96 26-1032): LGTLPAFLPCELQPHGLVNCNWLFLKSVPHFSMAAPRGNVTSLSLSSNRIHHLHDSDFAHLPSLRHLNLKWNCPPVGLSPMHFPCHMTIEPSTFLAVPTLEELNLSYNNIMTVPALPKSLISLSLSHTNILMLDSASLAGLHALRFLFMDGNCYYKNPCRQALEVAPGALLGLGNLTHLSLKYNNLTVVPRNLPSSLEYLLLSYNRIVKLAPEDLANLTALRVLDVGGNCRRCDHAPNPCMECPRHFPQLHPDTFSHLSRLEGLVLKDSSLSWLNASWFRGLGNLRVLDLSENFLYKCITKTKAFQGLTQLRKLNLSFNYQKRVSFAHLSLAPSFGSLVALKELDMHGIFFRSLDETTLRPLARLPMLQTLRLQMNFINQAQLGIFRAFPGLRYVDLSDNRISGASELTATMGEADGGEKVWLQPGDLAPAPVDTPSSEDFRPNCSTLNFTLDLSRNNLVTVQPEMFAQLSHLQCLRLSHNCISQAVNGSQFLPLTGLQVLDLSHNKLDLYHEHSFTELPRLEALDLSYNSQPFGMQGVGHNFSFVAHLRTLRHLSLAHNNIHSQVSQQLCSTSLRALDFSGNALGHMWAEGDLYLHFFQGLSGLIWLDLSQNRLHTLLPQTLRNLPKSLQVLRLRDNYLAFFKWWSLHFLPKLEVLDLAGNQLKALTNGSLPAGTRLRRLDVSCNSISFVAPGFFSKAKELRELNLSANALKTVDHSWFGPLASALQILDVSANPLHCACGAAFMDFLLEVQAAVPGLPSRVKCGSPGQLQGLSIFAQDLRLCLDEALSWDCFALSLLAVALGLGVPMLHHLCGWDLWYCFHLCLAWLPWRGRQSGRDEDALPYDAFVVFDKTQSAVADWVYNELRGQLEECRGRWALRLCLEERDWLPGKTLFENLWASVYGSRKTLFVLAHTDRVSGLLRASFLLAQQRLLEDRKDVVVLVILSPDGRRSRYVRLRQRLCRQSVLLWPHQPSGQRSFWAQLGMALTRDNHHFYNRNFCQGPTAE
Assay: HEK-TLR9 NF-κB-luciferase reporter, ODN2006 stimulation
Assay type: cell-based
Conditions: for TLR9 100 nM (averaged NF-κB-Luciferase level relative to ODN2006 condition): ASO 100 nM; for TLR9 100 nM (averaged NF-κB-Luciferase level relative to ODN2006 condition) / TLR9 500 nM (averaged NF-κB-Luciferase level relative to ODN2006 condition): relative to ODN2006 only, given as fraction; for TLR9 500 nM (averaged NF-κB-Luciferase level relative to ODN2006 condition): ASO 500 nM; for inhibition of TLR9 sensing of ODN2006 (in words) / TLR9-500 nM: averaged NF-κB-Luciferase relative to ODN2006: HEK-TLR9; for inhibition of TLR9 sensing of ODN2006 (in words): 500 nM 2′OMe or PS oligos, 200 nM ODN2006; for TLR9-500 nM: averaged NF-κB-Luciferase relative to ODN2006: 500 nM ASO 45 min, then 200 nM ODN2006 overnight, percentage of ODN2006 only

TGACTGTCTTGAGGGT (antisense; LNA-modified, pattern not given here) [MB21D1-1483 LNA KL]
TLR9 100 nM (averaged NF-κB-Luciferase level relative to ODN2006 condition): 1.245 | TLR9 500 nM (averaged NF-κB-Luciferase level relative to ODN2006 condition): 0.290

AGGACTCCAGATGTTT (antisense; LNA-modified, pattern not given here) [HPRT LNA pos cont]
TLR9 100 nM (averaged NF-κB-Luciferase level relative to ODN2006 condition): 0.816 | TLR9 500 nM (averaged NF-κB-Luciferase level relative to ODN2006 condition): 0.511

AAAGGACTGAGGAAAG (antisense; LNA-modified, pattern not given here) [CAMSAP1-6273 LNA KL]
TLR9 100 nM (averaged NF-κB-Luciferase level relative to ODN2006 condition): 0.780 | TLR9 500 nM (averaged NF-κB-Luciferase level relative to ODN2006 condition): 0.185

GGTCATTACAATAGCT (antisense; LNA-modified, pattern not given here) [HPRT LNA-475 KL]
TLR9 100 nM (averaged NF-κB-Luciferase level relative to ODN2006 condition): 0.438 | TLR9 500 nM (averaged NF-κB-Luciferase level relative to ODN2006 condition): 0.604

ACTTCGTGGGGTCCTT (antisense; LNA-modified, pattern not given here) [HPRT LNA-663 V1]
TLR9 100 nM (averaged NF-κB-Luciferase level relative to ODN2006 condition): 0.377 | TLR9 500 nM (averaged NF-κB-Luciferase level relative to ODN2006 condition): 0.377

GACTATACGCGCAATA (antisense; LNA-modified, pattern not given here) [NC5 LNA PS 3-10-3]
TLR9 100 nM (averaged NF-κB-Luciferase level relative to ODN2006 condition): 0.784 | TLR9 500 nM (averaged NF-κB-Luciferase level relative to ODN2006 condition): 0.403

GGTCTTGGCTTCGTGG (antisense; LNA-modified, pattern not given here) [MB21D1-523 LNA V1]
TLR9 100 nM (averaged NF-κB-Luciferase level relative to ODN2006 condition): 0.658 | TLR9 500 nM (averaged NF-κB-Luciferase level relative to ODN2006 condition): 0.417

GTGATCTTGACATGCT (antisense; LNA-modified, pattern not given here) [EGFR-2790 LNA KL]
TLR9 100 nM (averaged NF-κB-Luciferase level relative to ODN2006 condition): 1.001 | TLR9 500 nM (averaged NF-κB-Luciferase level relative to ODN2006 condition): 0.181

AACACTTCGTGGGGTC (antisense; LNA-modified, pattern not given here) [HPRT LNA-666 V1]
TLR9 100 nM (averaged NF-κB-Luciferase level relative to ODN2006 condition): 1.104 | TLR9 500 nM (averaged NF-κB-Luciferase level relative to ODN2006 condition): 0.475

mC*mU*mU*mG*mU*G*A*A*A*A*G*A*T*T*A*mU*mC*mU*mU*mC (mC*mU*mU*mG*mU*dG*dA*dA*dA*dA*dG*dA*dT*dT*dA*mU*mC*mU*mU*mC) [[CDKN2B-AS1]2139]
inhibition of TLR9 sensing of ODN2006 (in words): strongly inhibited TLR9 | inhibition of TLR9 sensing of ODN2006 (in words) (listed as ASO2139): significantly increased TLR9 inhibition | TLR9-500 nM: averaged NF-κB-Luciferase relative to ODN2006: 34.91%

CGTATTATAGCCGATT (antisense; LNA-modified, pattern not given here) [NC1 LNA PS 3-10-3]
TLR9 100 nM (averaged NF-κB-Luciferase level relative to ODN2006 condition): 0.933 | TLR9 500 nM (averaged NF-κB-Luciferase level relative to ODN2006 condition): 0.558

GAAAGGTTATGCAAGG (antisense; LNA-modified, pattern not given here) [CTNN2B-916 LNA KL]
TLR9 100 nM (averaged NF-κB-Luciferase level relative to ODN2006 condition): 0.748 | TLR9 500 nM (averaged NF-κB-Luciferase level relative to ODN2006 condition): 0.606

ATGTGATGGCCTCCCA (antisense; LNA-modified, pattern not given here) [HPRT LNA-335 V1]
TLR9 100 nM (averaged NF-κB-Luciferase level relative to ODN2006 condition): 0.776 | TLR9 500 nM (averaged NF-κB-Luciferase level relative to ODN2006 condition): 0.451

AACCCCTTTCACCATC (antisense; LNA-modified, pattern not given here) [MB21D1-689 LNA KL]
TLR9 100 nM (averaged NF-κB-Luciferase level relative to ODN2006 condition): 0.586 | TLR9 500 nM (averaged NF-κB-Luciferase level relative to ODN2006 condition): 0.076

GAGGTCTTGGCTTCGT (antisense; LNA-modified, pattern not given here) [MB21D1-525 LNA V1]
TLR9 100 nM (averaged NF-κB-Luciferase level relative to ODN2006 condition): 0.897 | TLR9 500 nM (averaged NF-κB-Luciferase level relative to ODN2006 condition): 0.224

CCACTTGGCAGACCAT (antisense; LNA-modified, pattern not given here) [CTNN2B-1575 LNA V1]
TLR9 100 nM (averaged NF-κB-Luciferase level relative to ODN2006 condition): 1.112 | TLR9 500 nM (averaged NF-κB-Luciferase level relative to ODN2006 condition): 0.111

mG*mU*mC*mU*mC*C*A*T*G*T*C*C*C*A*G*mG*mC*mC*mU*mC (mG*mU*mC*mU*mC*dC*dA*dT*dG*dT*dC*dC*dC*dA*dG*mG*mC*mC*mU*mC) [[CDKN2B;AS1]2231]
TLR9-500 nM: averaged NF-κB-Luciferase relative to ODN2006: 77.80%

GGCTCGGCTTGCCTAC (antisense; LNA-modified, pattern not given here) [CAMSAP1-5594 LNA V1]
TLR9 100 nM (averaged NF-κB-Luciferase level relative to ODN2006 condition): 0.714 | TLR9 500 nM (averaged NF-κB-Luciferase level relative to ODN2006 condition): 0.350

TGGTGGCCACCCATCT (antisense; LNA-modified, pattern not given here) [CTNN2B-2479 LNA V1]
TLR9 100 nM (averaged NF-κB-Luciferase level relative to ODN2006 condition): 1.136 | TLR9 500 nM (averaged NF-κB-Luciferase level relative to ODN2006 condition): 1.117

mC*mA*mG*mU*mG*T*T*T*T*T*A*A*T*T*T*mU*mG*mU*mA*mG (mC*mA*mG*mU*mG*dT*dT*dT*dT*dT*dA*dA*dT*dT*dT*mU*mG*mU*mA*mG; antisense) [[CDKN2B-AS1]613]
TLR9-500 nM: averaged NF-κB-Luciferase relative to ODN2006: 92.59%

TACTTTCCGAGGTGTC (antisense; LNA-modified, pattern not given here) [CAMSAP1-1739 LNA KL]
TLR9 100 nM (averaged NF-κB-Luciferase level relative to ODN2006 condition): 0.915 | TLR9 500 nM (averaged NF-κB-Luciferase level relative to ODN2006 condition): 0.356

CCACATCCTGTGGCTC (antisense; LNA-modified, pattern not given here) [CAMSAP1-2906 LNA V1]
TLR9 100 nM (averaged NF-κB-Luciferase level relative to ODN2006 condition): 0.338 | TLR9 500 nM (averaged NF-κB-Luciferase level relative to ODN2006 condition): 0.337

TGCTCCTCGGTCTCCC (antisense; LNA-modified, pattern not given here) [CAMSAP1-1850 LNA V1]
TLR9 100 nM (averaged NF-κB-Luciferase level relative to ODN2006 condition): 0.548 | TLR9 500 nM (averaged NF-κB-Luciferase level relative to ODN2006 condition): 0.535

AGATTTCAGAGCAGCT (antisense; LNA-modified, pattern not given here) [EGFR-4885 LNA KL]
TLR9 100 nM (averaged NF-κB-Luciferase level relative to ODN2006 condition): 0.848 | TLR9 500 nM (averaged NF-κB-Luciferase level relative to ODN2006 condition): 0.438

ATGGCCTCCCATCTCC (antisense; LNA-modified, pattern not given here) [HPRT LNA-330 V1]
TLR9 100 nM (averaged NF-κB-Luciferase level relative to ODN2006 condition): 0.511 | TLR9 500 nM (averaged NF-κB-Luciferase level relative to ODN2006 condition): 0.244

GTCTCTGGAGCTTCCT (antisense; LNA-modified, pattern not given here) [CAMSAP1-2456 LNA V1]
TLR9 100 nM (averaged NF-κB-Luciferase level relative to ODN2006 condition): 0.935 | TLR9 500 nM (averaged NF-κB-Luciferase level relative to ODN2006 condition): 0.272

CGCTTTTCTGTCTGGT (antisense; LNA-modified, pattern not given here) [CTNN2B-311 LNA KL]
TLR9 100 nM (averaged NF-κB-Luciferase level relative to ODN2006 condition): 0.827 | TLR9 500 nM (averaged NF-κB-Luciferase level relative to ODN2006 condition): 0.178

mG*mU*mG*mU*mU*T*T*T*A*A*T*T*T*T*G*mU*mA*mG*mA*mG (mG*mU*mG*mU*mU*dT*dT*dT*dA*dA*dT*dT*dT*dT*dG*mU*mA*mG*mA*mG) [[CDKN2B-AS1]611]
TLR9-500 nM: averaged NF-κB-Luciferase relative to ODN2006: 98.50%

mG*mU*mG*mU*mC*C*T*T*C*A*T*G*C*T*T*mU*mG*mG*mA*mU (GUGUCCTTCATGCTTUGGAU; antisense; sugars from the 5' end m5 d10 m5, all phosphorothioate, methylation of C not given here) [[CDKN2B-AS1]1415]
TLR9-500 nM: averaged NF-κB-Luciferase relative to ODN2006: 98.99%

CTTGAAGCATCGTATC (antisense; LNA-modified, pattern not given here) [CTNN2B-3648 LNA KL]
TLR9 100 nM (averaged NF-κB-Luciferase level relative to ODN2006 condition): 0.899 | TLR9 500 nM (averaged NF-κB-Luciferase level relative to ODN2006 condition): 0.483

GTCCTTGCACGTGGCT (antisense; LNA-modified, pattern not given here) [EGFR-1015 LNA V1]
TLR9 100 nM (averaged NF-κB-Luciferase level relative to ODN2006 condition): 1.310 | TLR9 500 nM (averaged NF-κB-Luciferase level relative to ODN2006 condition): 0.722

mA*mG*mC*mA*mG*T*C*T*C*C*A*T*G*T*C*mC*mC*mA*mG*mG (AGCAGTCTCCATGTCCCAGG; antisense; sugars from the 5' end m5 d10 m5, all phosphorothioate, methylation of C not given here) [[CDKN2B-AS1]2235]
TLR9-500 nM: averaged NF-κB-Luciferase relative to ODN2006: 73.18%
